Data reported in ChEMBL document CHEMBL1154051, “Analysis of binding parameters of HIV-1 integrase inhibitors: correlates of drug inhibition and resistance” (Bioorg Med Chem, 2009).

target: Human immunodeficiency virus type 1 integrase (Human immunodeficiency virus 1, UniProt Q7ZJM1); experiment: Inhibition of HIV1 integrase strand transfer activity
Sequence (Q7ZJM1 whole entry): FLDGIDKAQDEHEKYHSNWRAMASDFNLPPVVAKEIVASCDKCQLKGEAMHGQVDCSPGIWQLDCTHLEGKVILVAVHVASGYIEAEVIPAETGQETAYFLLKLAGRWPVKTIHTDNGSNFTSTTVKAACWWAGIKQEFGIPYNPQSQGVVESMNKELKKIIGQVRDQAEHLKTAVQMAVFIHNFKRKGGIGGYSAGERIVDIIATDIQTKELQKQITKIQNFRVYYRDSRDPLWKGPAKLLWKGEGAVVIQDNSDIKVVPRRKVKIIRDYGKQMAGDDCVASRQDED

Compared with `O=C1c2c(c(C(=O)N3CCOCC3)c3cccnc3c2O)CN1Cc1ccc(F)cc1`, `CN(C)S(=O)(=O)Oc1c2c(c(O)c3ncccc13)C(=O)N(Cc1ccc(F)cc1)C2` is 6.2-fold higher in IC50: 40 nM for the first, 250 nM for the second.

Going from `O=C(O)/C(O)=C/C(=O)c1csc(Cc2ccccc2)c1` to `O=C(O)/C(O)=C/C(=O)c1ccc(Cc2ccccc2)s1`, the IC50 rises from 130 nM to 500 nM (3.8-fold). The first is the more potent here.

Compared with `O=C1c2c(c(-c3c(F)cccc3F)c3cccnc3c2O)CN1Cc1ccc(F)cc1`, `COc1cnc2c(O)c3c(c(OC)c2c1)CN(Cc1ccc(F)cc1)C3=O` is 3.7-fold lower in IC50: 330 nM for the first, 90 nM for the second. The second is the more potent here.

Compared with `O=C(O)/C(O)=C/C(=O)c1cccc(OCc2ccccc2)c1`, `O=C(O)/C(O)=C/C(=O)c1cccc(Cc2ccccc2Cl)c1` is lower in IC50: 350 nM for the first, < 100 nM for the second.

First: CN1CCN(c2cc(C(=O)NCc3ccc(F)cc3)c(O)c3ncccc23)CC1
Second: CC(=O)N1CCN(c2cc(C(=O)NCc3ccc(F)cc3)c(O)c3ncccc23)CC1
The IC50 of the first is 2-fold higher: 40 nM for the first, 20 nM for the second. The second is the more potent here.

Compared with `O=C(O)/C(O)=C/C(=O)c1ccccc1Cc1ccccc1`, `O=C(O)/C(O)=C/C(=O)c1cccc(Cc2ccccc2F)c1` is lower in IC50: 5670 nM for the first, < 100 nM for the second. The second is the more potent here.

`O=C(O)/C(O)=C/C(=O)c1cc(OCc2ccccc2)cc(OCc2ccccc2)c1` and `COc1cccc(Cc2cccc(C(=O)/C=C(\O)C(=O)O)c2)c1` are within 1.5-fold of each other in IC50: 100 nM for the first, 140 nM for the second.

Compared with `O=C(O)/C(O)=C/C(=O)c1ccc(Oc2ccccc2)cc1`, `COc1ccc(Cc2cccc(C(=O)/C=C(\O)C(=O)O)c2)cc1` is 76-fold lower in IC50: 11400 nM for the first, 150 nM for the second. The second is the more potent here.

First: O=C(O)/C(O)=C/C(=O)c1cccn1Cc1ccc(-c2ccccc2)cc1
Second: O=C(O)/C(O)=C/C(=O)c1cccn1Cc1ccccc1
The IC50 of the first is 34-fold higher: 7500 nM for the first, 220 nM for the second. The second is the more potent here.

Going from `O=C(O)/C(O)=C/C(=O)c1cccc(Cc2cccc(Cl)c2)c1` to `O=C(O)/C(O)=C/C(=O)c1cccc(Cc2cccc(F)c2)c1`, the IC50 rises from < 100 nM to 250 nM.

First: CC(=O)N(C)c1cc(C(=O)NCc2ccc(F)cc2)c(O)c2ncccc12
Second: CN(C)C(=O)C(=O)N(C)c1cc(C(=O)NCc2ccc(F)cc2)c(O)c2ncccc12
The IC50 of the first is 2-fold lower: 20 nM for the first, 40 nM for the second. The first is the more potent here.

First: O=C(O)/C(O)=C/C(=O)c1cccc(Cc2ccc(F)cc2)c1
Second: O=C(O)/C(O)=C/C(=O)c1cccc(Cc2ccc(Cl)cc2)c1
The IC50 of the first is lower: < 100 nM for the first, 750 nM for the second. The first is the more potent here.

Going from `O=C(O)/C(O)=C/C(=O)C1C=CSC1Cc1ccccc1` (stereo not drawn) to `O=C(O)/C(O)=C/C(=O)c1ccn(Cc2ccccc2)c1`, the IC50 rises from 180 nM to 550 nM (3.1-fold). The first is the more potent here.

`CC(=O)N(C)CCNc1cc(C(=O)NCc2ccc(F)cc2)c(O)c2ncccc12` and `O=C(NCc1ccc(F)cc1)c1ccc2cccnc2c1O` are the same in IC50: 30 nM for the first, 30 nM for the second.

First: [N-]=[N+]=NCc1cccc(C(=O)/C=C(\O)C(=O)O)c1
Second: O=C(O)/C(O)=C/C(=O)c1cccc(Br)c1
The IC50 of the first is 7.6-fold lower: 330 nM for the first, 2500 nM for the second.

Going from `O=C(/C=C(\O)C(=O)O)C(=O)c1cccc(C(=O)c2ccccc2)c1` to `O=C(O)/C(O)=C/C(=O)c1cccn1CCCc1ccccc1`, the IC50 falls from 2400 nM to 500 nM (4.8-fold). The second is the more potent here.

`[N-]=[N+]=NCc1cc(CN=[N+]=[N-])cc(C(=O)/C=C(\O)C(=O)O)c1` gave an IC50 of 460 nM.
